This note sets out measurements from patent US20240173249A1, “COSMETIC COMPOSITION CONTAINING BEE POLLEN EXOSOME” (LG HOUSEHOLD & HEALTH CARE LTD., priority 2022, published 2024).

What all share (type): cell-based
Assay [1] concerns human dermal fibroblast (HDF) cells. The assay can be described thus: Collagen synthesis efficacy (procollagen type I C-peptide EIA). The following applies: positive control, 10 ng/ml, compared to untreated group. The protocol: To verify the collagen synthesis effect of the bee pollen exosome raw material prepared in Preparation Example 2, measurements were performed as follows.
In detail, the collagen synthesis effect was evaluated using human dermal fibroblast (HDF) cells. After pre-treating the cells with the bee pollen exosome raw material sample for 48 hours, collagen synthesis efficacy was measured using a human procollagen type I C-peptide (PIP) EIA kit. The collagen synthesis efficacy of the sample was determined by calculating the increased value in percentage (%), as compared to the untreated control group, and the results are shown in a table. 10 ng/ml TGF-b was used as a positive control group.
All of the above samples were diluted to 0.01% and 0.1% concentrations (v/v %) and evaluated.

In a further assay the test system is Raw 264.7 cells. As to the kind of experiment: NO production inhibition, LPS-treated cells, NO quantification kit. Particulars: positive control, 200 ppm. How it is done:
In order to verify the skin soothing and anti-inflammatory effects of the bee pollen exosome raw material prepared in Preparation Example 2, the NO production inhibitory effect was measured as follows, and compared with those of the pollen extract raw material, the bee pollen extract raw material, and the plant-derived exosome raw material which are the control groups.
In detail, the NO production inhibitory effects of the above samples were measured using Raw 264.7 cells. As a positive control, 20 mg/ml L-NMMA1 (NOS inhibitor) was used, and the samples were diluted to 0.01% and 0.1% concentrations (v/v %) and treated for 30 minutes, followed by treatment with 1 μg/ml LPS and culturing for 24 hours. Then, the ability to inhibit NO production was evaluated using a NO quantification kit as follows. All results were expressed as mean±standard deviation (SD) after three or more independent experiments.
NO production inhibitory ability (%)=(1−([…] NO production amount with sample addition))/(NO production amount without sample addition)×100

The next assay concerns B16f10 melanocytes. As to the kind of experiment: Melanin production inhibition in melanocytes. Particulars: Mus musculus, B16-F10, positive control, read-out: inhibition of melanin synthesis. The protocol: In order to verify the whitening effect of the bee pollen exosome raw material prepared in Preparation Example 2, the melanin production-inhibitory effect was measured as follows.
In detail, the whitening efficacy of the bee pollen exosome raw material was evaluated by measuring the degree of reduction in the amount of melanin pigment present in melanocytes. The bee pollen exosome raw material was diluted to 0.01% and 0.1% concentrations (v/v %), and B16f10 melanocytes were treated therewith, and cultured for 72 hours, and melanin was quantified to evaluate the whitening efficacy. The melanin content was calculated based on the total protein amount, and the melanin production inhibition rate was calculated as %, based on a DMSO control group. 200 ppm of arbutin was treated as a positive control group.
In detail, the bee pollen extract raw material was prepared by grinding the same amount of bee pollens in the same manner as in preparing the bee pollen exosome, and by extracting using a general low-temperature extraction method of using purified water for 24 hours to 72 hours under the same temperature conditions (4° C. to 25° C.). […]

In the case of “TGF-b: 10 ng/ml TGF-b used as positive control for collagen synthesis”, the collagen synthesis increase in assay [1] is on record as 29.87%. In the case of `CNC(=N)NCCC[C@H](N)C(=O)O` [L-NMMA1], in the assay on Raw 264.7 cells, the “NO production inhibition ability” value is recorded as 59.17%. On to `OC[C@H]1O[C@@H](Oc2ccc(O)cc2)[C@H](O)[C@@H](O)[C@@H]1O` [arbutin], for which, in the assay with B16f10 melanocytes, the inhibition at 200 ppm is 38.1%.

What is called inhibition is the drop in the measured response relative to a control, in per cent.
